Where two headings read alike, the source gives them in different places.
Experiments:
spatial working memory = conditions: male C57 mice, 3 mg/kg, tested 30 minutes later; cited from earlier work
gene expression = conditions: microarray, out of 24,500 possible genes, acute THC; cited from earlier work
novel object recognition = conditions: 3 mg/kg THC, 24 hours after dosing; cited from earlier work
[1] = test system: CD1 female mouse brain lipidome; assay: Targeted brain lipidomics; type: in vivo; conditions: for magnitude class of change in PGE2 and PGF2α, HIPP: p < 0.05
[2] = test system: hippocampal transcriptome; assay: RNA-Seq of hippocampus after acute THC versus vehicle; type: in vivo, mouse; conditions: for number of transcripts differentially expressed in the HIPP: 2 hours, 5% FDR
[3] = adult, THC vs vehicle, significant
[4] = PND 35, 2 hours after 3 mg/kg THC i.p.
[5] = PND 50, 2 hours after 3 mg/kg THC i.p.
[6] = adult, 2 hours after 3 mg/kg THC i.p.

CCCCCc1cc(O)c2c(c1)OC(C)(C)[C@@H]1CCC(C)=C[C@@H]21 [THC, Δ^9-tetrahydrocannabinol]
effect on spatial working memory in the Morris water maze (spatial working memory): significantly disrupted spatial working memory | number of genes with altered expression (gene expression): 28 | effect on novel object recognition (novel object recognition): impaired | change in 2-AG in HYP ([1]; PND 35): decrease | change in N-oleoyl glycine in HYP ([1]; PND 35): increase | effect on AEA levels ([1]; PND 35): unaffected | number of brain areas with reduced 2-AG levels ([1]; PND 35): 2 | number of decreases in lipid concentration, all 8 brain areas ([1]; PND 35): 10 | number of increases in lipid concentration, all 8 brain areas ([1]; PND 35): 23 | number of lipids decreased in HIPP ([1]; PND 35): 1 | number of lipids increased in HIPP ([1]; PND 35): 6 | magnitude of change of PGE2 in the HIPP (THC mean divided by vehicle mean) ([1]; PND 35, 3 mg/kg i.p., 2 hours): 1.13 | magnitude class of change in PGE2 and PGF2α, HIPP ([1]; PND 35, THC vs vehicle): 1 up arrow | magnitude class of change in A-Taur, THAL ([1]; PND 35, THC vs vehicle, significant): 1 up arrow | number of significant changes in lipid concentrations across all 8 brain areas ([1]; PND 35, out of 656 possible changes): 33 | average level of PGE2 in the HIPP ([1]; PND 35 THC mice, 3 mg/kg i.p., 2 hours): 6.68×10^−10 moles per gram | change in levels of PGE2 and PGF2α in the HIPP ([1]; PND 35 mouse): increase | change in AEA and its structural analogs the NAEs in STR ([1]; PND 50): significantly increased | change in PGF2α in HYP (only change in that region) ([1]; PND 50): increase | number of brain regions with reduced 2-AG levels ([1]; PND 50): 4 | number of brain regions with reduced AEA levels ([1]; PND 50): 2 | number of decreases in lipid concentration, all 8 brain areas ([1]; PND 50): 28 | number of increases in lipid concentration, all 8 brain areas ([1]; PND 50): 30 | number of lipids decreased in CER ([1]; PND 50): 8 | number of lipids increased in CER ([1]; PND 50): 5 | number of lipids significantly modified, all 8 brain areas ([1]; PND 50): 58 | change in levels of PGE2 and PGF2α in the HIPP ([1]; PND 50 mouse): no change | change in NAEs in all brain areas except the STR and CTX ([1]; adult): significantly decreased | change in levels of PGE2 and PGF2α in the HIPP ([1]; adult): decrease | number of brain regions with reduced 2-AG levels ([1]; adult): 4 | number of brain regions with reduced AEA levels ([1]; adult): 6 | number of changes in lipid levels in CER (all decreases) ([1]; adult): 14 | number of decreases in lipid concentration, all 8 brain regions ([1]; adult): 99 | number of increases in lipid concentration, all 8 brain regions ([1]; adult): 17 | number of lipids affected in STR ([1]; adult): 3 | number of lipids altered in STEM ([1]; adult): 28 | number of lipids changing in concentration across the 8 brain regions ([1]; adult): 116 | number of lipids decreased in STEM ([1]; adult): 24 | number of lipids decreased in STR ([1]; adult): 2 | number of lipids increased in STEM ([1]; adult): 4 | number of lipids increased in STR ([1]; adult): 1 | mean level of AEA in the HIPP ([1]; adult THC mice, 3 mg/kg i.p., 2 hours): 4.76×10^−11 moles per gram | AEA in the HIPP, THC mean divided by vehicle mean ([1]; adult, 3 mg/kg i.p., 2 hours): 0.87 | fold decrease of AEA in the HIPP (reciprocal of THC/vehicle) ([1]; adult, 3 mg/kg i.p., 2 hours): 1.15 | magnitude class of change in 2-OG, MID ([1]; adult, THC vs vehicle): 2 down arrows | magnitude class of change in PGE2 and PGF2α, HIPP ([1]; adult, THC vs vehicle): 1 down arrow | magnitude class of change in AEA, THAL [1, 3]: 1 down arrow | magnitude class of change in SEA, THAL [1, 3]: 3 down arrows | magnitude class of change in A-Taur, THAL ([1]; adult, THC vs vehicle, trending (p < 0.1)): 1 up arrow | magnitude class of change in 2-AG, MID ([1]; all 3 age groups, THC vs vehicle): 1 down arrow | effect on FKBP5 message ([2]; HIPP of both age groups, 3 mg/kg, larger magnitude in adult): upregulated | effect on Cdkn1a transcript ([2]; HIPP of mice from both age groups): upregulated | number of genes affected in the same direction regardless of age ([2]; HIPP, PND 35 and adult): 31 | number of shared transcripts significantly downregulated ([2]; HIPP, PND 35 and adult): 11 | number of transcripts downregulated in the HIPP ([2]; PND 35): 48 | number of transcripts upregulated in the HIPP ([2]; PND 35): 41 | number of transcripts differentially expressed in the HIPP ([2]; PND 35, 3 mg/kg THC): 89 | log2 fold change of Plekhf1 (largest upregulation) ([2]; PND 35 HIPP): 0.84 | log2 fold change of kdr (most robust downregulation) ([2]; PND 35 HIPP): −0.73 | number of transcript changes unique to this age group ([2]; PND 35 HIPP): 58 | number of uniquely changed transcripts downregulated ([2]; PND 35 HIPP): 37 | number of decreases in transcript expression in the HIPP ([2]; adult): 80 | number of increases in transcript expression in the HIPP ([2]; adult): 109 | log2 fold change of Plekhf1 (largest upregulation) ([2]; adult HIPP): 1.36 | log2 fold change of cldn5 (most robust downregulation) ([2]; adult HIPP): −0.80 | number of transcript changes unique to this age group ([2]; adult HIPP): 158 | number of unique transcript changes that were decreases ([2]; adult HIPP): 69 | number of unique transcript changes that were increases ([2]; adult HIPP): 89 | effect on mRNA encoding the receptor for VEGF, Kdr ([2]; adult and PND 35 HIPP): significantly lowered | number of transcripts differentially expressed in the HIPP ([2]; adult, 3 mg/kg THC): 189 | brain area with highest levels [4]: HIPP | brain area with highest levels [5]: HIPP | brain area with highest levels [6]: HIPP

(±)-11-nor-9-carboxyTHC
rank of HIPP levels relative to other brain regions [4]: highest

11-OH-THC
rank of HIPP levels relative to other brain regions [5]: highest | rank of HIPP levels relative to other brain regions [6]: 5th
